Source: patent publication US20080103162A1, “Antipruritics” (priority 2001, published 2008)

Tests used:
Assay type in all cases: in vivo
[1] = tested on: male ddY mice; assay: compound 48/80-induced scratching behavior, intravenous administration (Test Example 1); details: intravenously administered five minutes before compound 48/80 (50 μg/0.1 ml, subcutaneous, back), FIG. 1 to FIG. 3
[2] = tested on: wild type mice; assay: compound 48/80-induced scratching behavior in wild type mice (Test Example 2); details: wild type mice (backcrossed with C57BL/6J); intravenous, five minutes before compound 48/80; FIG. 4(a)
[3] = tested on: nociceptine receptor defective mice; assay: compound 48/80-induced scratching behavior in nociceptine receptor defective mice (Test Example 2); details: intravenous, five minutes before compound 48/80, FIG. 4(b)
[4] = tested on: male ICR mice; assay: eye scratching behavior induced by instillation of serotonin (Test Example 3); details: instillation of 10 μl of compound five minutes before 10 μl of 1% serotonin hydrochloride in right eye, FIG. 5
Procedure: After the instillation of 10 μl of 1% serotonin hydrochloride (hereinafter referred to as serotonin) in the right eye of 4-6 weeks-old male ICR mice, the number of scratching behavior in the vicinity of the eye induced by the instillation of serotonin for 10 minutes. […] Five minutes before the instillation of serotonin, the instillation of 10 μl of the compound was performed. In a control group, the instillation of distilled water was performed.

[5] = tested on: male ICR mice; assay: spontaneous scratching behavior of mice with cutaneous barrier disruption (Test Example 4); details: 0.1% in 100% ethanol, applied (100 μl) in vicinity of shaved portion, before vs after application, FIG. 6
Procedure: The rostral back portion of 5 weeks-old male ICR mice was shaved under etherization, and then cutaneous barrier was disrupted by carrying out a treatment of applying a mixed solution of acetone and ether (1:1) to the shaved portion and applying distilled water twice a day every day (10 days). […] The compound was applied (100 μl) in the vicinity of the shaved portion.

Structure (SMILES)	scratching behavior suppressing effect (number of scratching behavior for 30 minutes) [1]	scratching behavior suppressing effect (number of scratching behavior for 30 minutes) [2]	scratching behavior suppressing effect (number of scratching behavior for 30 minutes) [3]	suppression of eye scratching behavior induced by instillation of serotonin (number of scratching behavior for 10 minutes) [4]	suppression of spontaneous scratching behavior induced by cutaneous barrier disruption (number of scratching behavior for 30 minutes) [5]
COc1ccc2nc(NC(=O)c3ccc(Cl)cc3)nc(N[C@H]3CCCC[C@H]3NC(=N)N)c2c1.Cl.Cl [compound A, (1R,2S)—N-amidino-2-[2-(4-chlorobenzoylamino)-6-methoxyquinazolin-4-yl]aminocyclohexylamine dihydrochloride]	strong scratching behavior suppressing effect	strong scratching behavior suppressing effect	completely disappeared		
CCc1ccc(OCc2ccccc2C(=O)Nc2ccc3nc(C)cc(N)c3c2)cc1.Cl [compound C, N-(4-amino-2-methyl-6-quinolyl)-2-[(4-ethylphenoxy)methyl]benzamide hydrochloride, reference compound]	strong scratching behavior suppressing effect				
Cc1ccc2nc(NC(=O)c3ccc(Cl)cc3)nc(N[C@H]3CCCC[C@H]3NC(=N)N)c2c1.Cl.Cl [compound D, (1R,2S)—N-amidino-2-{[2-(4-chlorobenzoylamino)-6-methylquinazolin-4-yl]amino}cyclohexylamine dihydrochloride]				strongly suppressed	strongly suppressed
